Values quoted from earlier work in patent US20140342380A1, “VERIFYING THE SOURCE OF BIOLOGICAL SAMPLES; METHOD, COMPOSITION AND KIT THEREFOR” (priority 2011, published 2014).
Like-named read-outs stand apart in the source and are kept apart here.

What was measured:
[1] = cited from earlier work
[2] = cited from earlier work; remark: listed apart in the source

CCCCCCCCCCCCOC(=O)CCSCCC(=O)OCCCCCCCCCCCC [Dilauryl thiodipropionate (DLTDP), Dilauryl thiodipropionate]
metabolite(s) / form excreted in urine after ingestion ([1]; Table 1 note, species not stated): Dilauryl thiodipropionate (DLTDP), Ingested DLTDP was excreted in the urine as thiodipropionic

O=C(OC[C@H]1O[C@@H](OC(=O)c2cc(O)c(O)c(OC(=O)c3cc(O)c(O)c(O)c3)c2)[C@H](OC(=O)c2cc(O)c(O)c(OC(=O)c3cc(O)c(O)c(O)c3)c2)[C@@H](OC(=O)c2cc(O)c(O)c(OC(=O)c3cc(O)c(O)c(O)c3)c2)[C@@H]1OC(=O)c1cc(O)c(O)c(OC(=O)c2cc(O)c(O)c(O)c2)c1)c1cc(O)c(O)c(OC(=O)c2cc(O)c(O)c(O)c2)c1 [Tannic acid]
metabolite(s) found after ingestion ([2]; Table 1 note, cited study in rat): Tannic acid: metabolized to 4-0-Methylgallic acid (4-OMGA), pyrogallol (PY), and resorcinol

C=CCc1ccc(O)c(OC)c1 [eugenol]
metabolite(s) found after ingestion ([2]; rat, in vivo): eugenol clove leaf oil metabolized to Glucuronide and sulfate conjugates were identified in urine.

inulin
renal handling / detection in urine after consumption ([1]; general statement): readily passively filtered by the kidney, e.g., detected in the urine after consumption
